Data taken from ChEMBL document CHEMBL5506073, “Discovery of Novel Ortho-Aminophenol Derivatives Targeting Lipid Peroxidation with Potent Antiferroptotic Activities” (J Med Chem, 2024).
Active and inactive are the calls of the source.

Legend:
Mus musculus [1] = test: Protection against kidney ischemia-reperfusion injury in C57BL/6 mouse model assessed as decrease in serum creatinine level at 10 mg/kg, ip administered twice 1 hr prior to ischemia onset measured after 24 hrs post-ischemia; assay type: functional, organism-based; conditions: time 25.0 hrs
HT-1080 [2] = test: Effect on lipid metabolism in human HT-1080 cells assessed as change in COX2 mRNA level by qRT-PCR analysis; assay type: functional, cell-based
HT-1080 [3] = test: Effect on lipid metabolism in human HT-1080 cells assessed as change in ALOX15 mRNA level by qRT-PCR analysis; assay type: functional, cell-based
HT-1080 [4] = test: Inhibition of RSL3-induced ferroptosis in human HT-1080 cells assessed as cell viability at 200 nM incubated for 24 hrs by CCK8 assay; assay type: functional, cell-based
SW480 [5] = test: Inhibition of FIN56-induced ferroptosis in human SW480 cells assessed as cell viability at 200 nM incubated for 24 hrs by CCK8 assay; assay type: functional, cell-based
Mus musculus [6] = test: Protection against kidney ischemia-reperfusion injury in C57BL/6 mouse model assessed as decrease in cytoplasmic vacuoles in kidney at 10 mg/kg, ip administered twice 1 hr prior to ischemia onset measured after 24 hrs post-ischemia by H and E staining based analysis; assay type: functional, organism-based; conditions: time 25.0 hrs
Mus musculus [7] = test: Protection against APAP-induced acute liver injury in overnight fasted C57BL/6 mouse model assessed as normal pathology of liver at 10 mg/kg, ip administered 1 hr prior to APAP treatment measured after 12 hrs post-APAP treatment under continuous fasting condition by H and E staining based analysis; assay type: functional, organism-based; conditions: time 13.0 hrs
HK-2 [8] = test: Inhibition of FIN56-induced ferroptosis in human HK-2 cells assessed as cell viability at 200 nM incubated for 24 hrs by CCK8 assay; assay type: functional, cell-based
Mus musculus [9] = test: Protection against APAP-induced acute liver injury in overnight fasted C57BL/6 mouse model assessed as reversal of native liver architecture at 10 mg/kg, ip administered 1 hr prior to APAP treatment measured after 12 hrs post-APAP treatment under continuous fasting condition by H and E staining based analysis; assay type: functional, organism-based; conditions: time 13.0 hrs
Mus musculus [10] = test: Protection against kidney ischemia-reperfusion injury in C57BL/6 mouse model assessed as decrease in renal tubule dilation at 10 mg/kg, ip administered twice 1 hr prior to ischemia onset measured after 24 hrs post-ischemia by H and E staining based analysis; assay type: functional, organism-based; conditions: time 25.0 hrs
HT-1080 [11] = test: Inhibition of ferroptosis in human HT-1080 cells assessed as reversal of RSL3-induced normal morphological loss; assay type: functional, cell-based
HT-1080 [12] = test: Effect on lipid metabolism in human HT-1080 cells assessed as change in ACSL4 mRNA level by qRT-PCR analysis; assay type: functional, cell-based
KHOS/NP [13] = test: Inhibition of RSL3-induced ferroptosis in human KHOS/NP cells assessed as cell viability at 200 nM incubated for 24 hrs by CCK8 assay; assay type: functional, cell-based
HK-2 [14] = test: Inhibition of RSL3-induced ferroptosis in human HK-2 cells assessed as cell viability at 200 nM incubated for 24 hrs by CCK8 assay; assay type: functional, cell-based
[15] = Antioxidant activity assessed as DPPH radical scavenging activity at 20 uM incubated for 30 mins by absorbance based assay; assay type: functional
HT-1080 [16] = test: Inhibition of RSL3-induced lipid peroxidation in human HT-1080 cells assessed as reduction in green fluorescence by C11-BODIPY581/591 probe based analysis; assay type: functional, cell-based
HT-1080 [17] = test: Inhibition of ferroptosis in human HT-1080 cells assessed as reversal of RSL3-induced cell shrinkage; assay type: functional, cell-based
SW480 [18] = test: Inhibition of RSL3-induced ferroptosis in human SW480 cells assessed as cell viability at 200 nM incubated for 24 hrs by CCK8 assay; assay type: functional, cell-based
Mus musculus [19] = test: Protection against APAP-induced acute liver injury in overnight fasted C57BL/6 mouse model assessed as decrease in plasma ALT level at 10 mg/kg, ip administered 1 hr prior to APAP treatment measured after 12 hrs post-APAP treatment under continuous fasting condition; assay type: functional, organism-based; conditions: time 13.0 hrs
HT-1080 [20] = test: Inhibition of ferroptosis in human HT-1080 cells assessed as reversal of RSL3-induced membrane rupture; assay type: functional, cell-based
Mus musculus [21] = test: Protection against APAP-induced acute liver injury in overnight fasted C57BL/6 mouse model assessed as decrease in plasma AST level at 10 mg/kg, ip administered 1 hr prior to APAP treatment measured after 12 hrs post-APAP treatment under continuous fasting condition; assay type: functional, organism-based; conditions: time 13.0 hrs
Mus musculus [22] = test: Protection against APAP-induced acute liver injury in overnight fasted C57BL/6 mouse model assessed as reduction in 4-HNE formation in liver at 10 mg/kg, ip administered 1 hr prior to APAP treatment measured after 12 hrs post-APAP treatment under continuous fasting condition by IHC analysis; assay type: functional, organism-based; conditions: time 13.0 hrs
HT-1080 [23] = test: Inhibition of RSL3-induced ferroptosis in human HT-1080 cells assessed as cell viability incubated for 24 hrs by CCK8 assay; assay type: functional, cell-based; conditions: HT-1080, 24 h
HTR-8/SVneo [24] = test: Inhibition of RSL3-induced ferroptosis in human HTR-8/SVneo cells assessed as cell viability at 200 nM incubated for 24 hrs by CCK8 assay; assay type: functional, cell-based
Mus musculus [25] = test: Protection against kidney ischemia-reperfusion injury in C57BL/6 mouse model assessed as decrease in brush edges loss in kidney at 10 mg/kg, ip administered twice 1 hr prior to ischemia onset measured after 24 hrs post-ischemia by H and E staining based analysis; assay type: functional, organism-based; conditions: time 25.0 hrs
Mus musculus [26] = test: Protection against APAP-induced acute liver injury in overnight fasted C57BL/6 mouse model assessed as reduction in necrotic areas of liver at 10 mg/kg, ip administered 1 hr prior to APAP treatment measured after 12 hrs post-APAP treatment under continuous fasting condition by H and E staining based analysis; assay type: functional, organism-based; conditions: time 13.0 hrs
HKC [27] = test: Inhibition of RSL3-induced ferroptosis in human HKC cells assessed as cell viability at 200 nM incubated for 24 hrs by CCK8 assay; assay type: functional, cell-based
HT-1080 [28] = test: Inhibition of FIN56-induced ferroptosis in human HT-1080 cells assessed as cell viability at 200 nM incubated for 24 hrs by CCK8 assay; assay type: functional, cell-based
Mus musculus [29] = test: Protection against kidney ischemia-reperfusion injury in C57BL/6 mouse model assessed as decrease in BUN level at 10 mg/kg, ip administered twice 1 hr prior to ischemia onset measured after 24 hrs post-ischemia; assay type: functional, organism-based; conditions: time 25.0 hrs
HT-1080 [30] = test: Inhibition of ferroptosis in human HT-1080 cells assessed as reversal of RSL3-induced swelling; assay type: functional, cell-based
HT-1080 [31] = test: Inhibition of RSL3-induced lipid peroxidation in human HT-1080 cells assessed as reduction in MDA adduct accumulation by ELISA; assay type: functional, cell-based
HT-1080 [32] = test: Effect on iron metabolism in human HT-1080 cells assessed as change in FTH1 mRNA level by qRT-PCR analysis; assay type: functional, cell-based
Mus musculus [33] = test: Protection against kidney ischemia-reperfusion injury in C57BL/6 mouse model assessed as decrease in KIM-1 level in kidney at 10 mg/kg, ip administered twice 1 hr prior to ischemia onset measured after 24 hrs post-ischemia by IHC analysis; assay type: functional, organism-based; conditions: time 25.0 hrs
HT-1080 [34] = test: Effect on iron metabolism in human HT-1080 cells assessed as change in DMT1 mRNA level by qRT-PCR analysis; assay type: functional, cell-based
KHOS/NP [35] = test: Inhibition of FIN56-induced ferroptosis in human KHOS/NP cells assessed as cell viability at 200 nM incubated for 24 hrs by CCK8 assay; assay type: functional, cell-based
HTR-8/SVneo [36] = test: Inhibition of FIN56-induced ferroptosis in human HTR-8/SVneo cells assessed as cell viability at 200 nM incubated for 24 hrs by CCK8 assay; assay type: functional, cell-based
HT-1080 [37] = test: Effect on iron metabolism in human HT-1080 cells assessed as change in TFRC mRNA level by qRT-PCR analysis; assay type: functional, cell-based
HT-1080 [38] = test: Effect on glutathione metabolic pathway in human HT-1080 cells assessed as change in GPX4 mRNA level by qRT-PCR analysis; assay type: functional, cell-based
HT-1080 [39] = test: Effect on glutathione metabolic pathway in human HT-1080 cells assessed as change in SLC7A11 mRNA level by qRT-PCR analysis; assay type: functional, cell-based
HKC [40] = test: Inhibition of FIN56-induced ferroptosis in human HKC cells assessed as cell viability at 200 nM incubated for 24 hrs by CCK8 assay; assay type: functional, cell-based
HT-1080 [41] = test: Inhibition of RSL3-induced ferroptosis in human HT-1080 cells assessed as cell viability at 0.5 uM incubated for 24 hrs by CCK8 assay; assay type: functional, cell-based
[42] = Antioxidant activity assessed as DPPH radical scavenging activity at 10 uM incubated for 30 mins by absorbance based assay; assay type: functional

COc1ccc(/C=N/NC(=O)c2cccc(O)c2N)cc1
active: Activity (Mus musculus [1]) | inhibition (HT-1080 [4]) | inhibition (SW480 [5]) | Activity (Mus musculus [6]) | Activity (Mus musculus [7]) | inhibition (HK-2 [8]) | Activity (Mus musculus [9]) | Activity (Mus musculus [10]) | inhibition (HT-1080 [11]) | inhibition (KHOS/NP [13]) | inhibition (HK-2 [14]) | Activity [15] | inhibition (HT-1080 [16]) | inhibition (HT-1080 [17]) | inhibition (SW480 [18]) | Activity (Mus musculus [19]) | inhibition (HT-1080 [20]) | Activity (Mus musculus [21]) | Activity (Mus musculus [22]) | inhibition (HTR-8/SVneo [24]) | Activity (Mus musculus [25]) | Activity (Mus musculus [26]) | inhibition (HKC [27]) | inhibition (HT-1080 [28]) | Activity (Mus musculus [29]) | inhibition (HT-1080 [30]) | inhibition (HT-1080 [31]) | Activity (Mus musculus [33]) | inhibition (KHOS/NP [35]) | inhibition (HTR-8/SVneo [36]) | inhibition (HKC [40])
inactive: Activity (HT-1080 [2]) | Activity (HT-1080 [3]) | Activity (HT-1080 [12]) | Activity (HT-1080 [32]) | Activity (HT-1080 [34]) | Activity (HT-1080 [37]) | Activity (HT-1080 [38]) | Activity (HT-1080 [39])
40.5 nM: EC50 (HT-1080 [23])

Cc1ccc(CSc2nnc(-c3cccc(O)c3N)o2)cc1
46 nM: EC50 (HT-1080 [23])
inactive: Activity (HT-1080 [2]) | Activity (HT-1080 [3]) | Activity (HT-1080 [12]) | Activity (HT-1080 [32]) | Activity (HT-1080 [34]) | Activity (HT-1080 [37]) | Activity (HT-1080 [38]) | Activity (HT-1080 [39])
active: Activity (Mus musculus [1]) | inhibition (HT-1080 [4]) | inhibition (SW480 [5]) | Activity (Mus musculus [6]) | Activity (Mus musculus [7]) | inhibition (HK-2 [8]) | Activity (Mus musculus [9]) | Activity (Mus musculus [10]) | inhibition (HT-1080 [11]) | inhibition (KHOS/NP [13]) | inhibition (HK-2 [14]) | Activity [15] | inhibition (HT-1080 [16]) | inhibition (HT-1080 [17]) | inhibition (SW480 [18]) | Activity (Mus musculus [19]) | inhibition (HT-1080 [20]) | Activity (Mus musculus [21]) | Activity (Mus musculus [22]) | inhibition (HTR-8/SVneo [24]) | Activity (Mus musculus [25]) | Activity (Mus musculus [26]) | inhibition (HKC [27]) | inhibition (HT-1080 [28]) | Activity (Mus musculus [29]) | inhibition (HT-1080 [30]) | inhibition (HT-1080 [31]) | Activity (Mus musculus [33]) | inhibition (KHOS/NP [35]) | inhibition (HTR-8/SVneo [36]) | inhibition (HKC [40])

CC(C)COC(=O)c1cccc(O)c1N
158 nM: EC50 (HT-1080 [23])
inactive: Activity (HT-1080 [2]) | Activity (HT-1080 [3]) | Activity (HT-1080 [12]) | Activity (HT-1080 [32]) | Activity (HT-1080 [34]) | Activity (HT-1080 [37]) | Activity (HT-1080 [38]) | Activity (HT-1080 [39])
active: Activity (Mus musculus [1]) | inhibition (HT-1080 [4]) | inhibition (SW480 [5]) | Activity (Mus musculus [6]) | Activity (Mus musculus [7]) | inhibition (HK-2 [8]) | Activity (Mus musculus [9]) | Activity (Mus musculus [10]) | inhibition (HT-1080 [11]) | inhibition (KHOS/NP [13]) | inhibition (HK-2 [14]) | Activity [15] | inhibition (HT-1080 [16]) | inhibition (HT-1080 [41]) | inhibition (HT-1080 [17]) | inhibition (SW480 [18]) | Activity (Mus musculus [19]) | inhibition (HT-1080 [20]) | Activity [42] | Activity (Mus musculus [21]) | Activity (Mus musculus [22]) | inhibition (HTR-8/SVneo [24]) | Activity (Mus musculus [25]) | Activity (Mus musculus [26]) | inhibition (HKC [27]) | inhibition (HT-1080 [28]) | Activity (Mus musculus [29]) | inhibition (HT-1080 [30]) | inhibition (HT-1080 [31]) | Activity (Mus musculus [33]) | inhibition (KHOS/NP [35]) | inhibition (HTR-8/SVneo [36]) | inhibition (HKC [40])
